According to ChEMBL document CHEMBL1156372, “New halogenated marine prostanoids with cytotoxic activity from the Okinawan soft coral Clavularia viridis” (J Nat Prod, 2001):
Values after ≈ are worked out from the molar mass of the structure shown.

Assays:
Assay type in all cases: functional, cell-based
[1] = system: MOLT-4; assay: Cytotoxicity against human MOLT4 cells by MTT assay
[2] = system: DLD-1; assay: Cytotoxicity against human DLD1 cells by MTT assay
[3] = system: IMR-90; assay: Cytotoxicity against human IMR90 cells by MTT assay

`CCCCC/C=C\C[C@@]1(O)C=C(I)C(=O)[C@@H]1[C@H](/C=C\CCCC(=O)OC)OC(C)=O` gave an IC50 [1] of 0.52 µg/mL (≈ 0.977 µM), an IC50 [2] of 0.6 µg/mL (≈ 1.13 µM) and an IC50 [3] of 4.5 µg/mL (≈ 8.45 µM).
